Read-outs that look alike come from different tables or passages of the source.
Assays:
[1] = biological target: T1, α1G T-type calcium channel (Homo sapiens, UniProt O43497); assay: Assay for % inhibiting activity against T-type calcium channel using FDSS6000 (fluo-3 calcium imaging, KCl activation); type: cell-based
T1 construct: host or cells: HEK293
Summary of the method: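 Percent inhibition derived from […] area against untreated control (100%), after 75 s compound pre-exposure and 75 mM KCl activation. Cells: HEK293 with stable α1G plus Kir2.1, fluo-3/AM-labelled (5 μM), assayed in pH 7.4 HEPES containing 10 mM CaCl2.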

[2] = HEK293, 10 μM, HEK293 cells stably expressing α1G T-type calcium channel and Kir2.1, compounds of the examples, read-out: FDSS (% inhibition)/10uM
[3] = 10 μM, FDSS (% inhibition), comparative compounds where R6 is a phenyl group, read-out: FDSS

T1 sequence (O43497 whole entry): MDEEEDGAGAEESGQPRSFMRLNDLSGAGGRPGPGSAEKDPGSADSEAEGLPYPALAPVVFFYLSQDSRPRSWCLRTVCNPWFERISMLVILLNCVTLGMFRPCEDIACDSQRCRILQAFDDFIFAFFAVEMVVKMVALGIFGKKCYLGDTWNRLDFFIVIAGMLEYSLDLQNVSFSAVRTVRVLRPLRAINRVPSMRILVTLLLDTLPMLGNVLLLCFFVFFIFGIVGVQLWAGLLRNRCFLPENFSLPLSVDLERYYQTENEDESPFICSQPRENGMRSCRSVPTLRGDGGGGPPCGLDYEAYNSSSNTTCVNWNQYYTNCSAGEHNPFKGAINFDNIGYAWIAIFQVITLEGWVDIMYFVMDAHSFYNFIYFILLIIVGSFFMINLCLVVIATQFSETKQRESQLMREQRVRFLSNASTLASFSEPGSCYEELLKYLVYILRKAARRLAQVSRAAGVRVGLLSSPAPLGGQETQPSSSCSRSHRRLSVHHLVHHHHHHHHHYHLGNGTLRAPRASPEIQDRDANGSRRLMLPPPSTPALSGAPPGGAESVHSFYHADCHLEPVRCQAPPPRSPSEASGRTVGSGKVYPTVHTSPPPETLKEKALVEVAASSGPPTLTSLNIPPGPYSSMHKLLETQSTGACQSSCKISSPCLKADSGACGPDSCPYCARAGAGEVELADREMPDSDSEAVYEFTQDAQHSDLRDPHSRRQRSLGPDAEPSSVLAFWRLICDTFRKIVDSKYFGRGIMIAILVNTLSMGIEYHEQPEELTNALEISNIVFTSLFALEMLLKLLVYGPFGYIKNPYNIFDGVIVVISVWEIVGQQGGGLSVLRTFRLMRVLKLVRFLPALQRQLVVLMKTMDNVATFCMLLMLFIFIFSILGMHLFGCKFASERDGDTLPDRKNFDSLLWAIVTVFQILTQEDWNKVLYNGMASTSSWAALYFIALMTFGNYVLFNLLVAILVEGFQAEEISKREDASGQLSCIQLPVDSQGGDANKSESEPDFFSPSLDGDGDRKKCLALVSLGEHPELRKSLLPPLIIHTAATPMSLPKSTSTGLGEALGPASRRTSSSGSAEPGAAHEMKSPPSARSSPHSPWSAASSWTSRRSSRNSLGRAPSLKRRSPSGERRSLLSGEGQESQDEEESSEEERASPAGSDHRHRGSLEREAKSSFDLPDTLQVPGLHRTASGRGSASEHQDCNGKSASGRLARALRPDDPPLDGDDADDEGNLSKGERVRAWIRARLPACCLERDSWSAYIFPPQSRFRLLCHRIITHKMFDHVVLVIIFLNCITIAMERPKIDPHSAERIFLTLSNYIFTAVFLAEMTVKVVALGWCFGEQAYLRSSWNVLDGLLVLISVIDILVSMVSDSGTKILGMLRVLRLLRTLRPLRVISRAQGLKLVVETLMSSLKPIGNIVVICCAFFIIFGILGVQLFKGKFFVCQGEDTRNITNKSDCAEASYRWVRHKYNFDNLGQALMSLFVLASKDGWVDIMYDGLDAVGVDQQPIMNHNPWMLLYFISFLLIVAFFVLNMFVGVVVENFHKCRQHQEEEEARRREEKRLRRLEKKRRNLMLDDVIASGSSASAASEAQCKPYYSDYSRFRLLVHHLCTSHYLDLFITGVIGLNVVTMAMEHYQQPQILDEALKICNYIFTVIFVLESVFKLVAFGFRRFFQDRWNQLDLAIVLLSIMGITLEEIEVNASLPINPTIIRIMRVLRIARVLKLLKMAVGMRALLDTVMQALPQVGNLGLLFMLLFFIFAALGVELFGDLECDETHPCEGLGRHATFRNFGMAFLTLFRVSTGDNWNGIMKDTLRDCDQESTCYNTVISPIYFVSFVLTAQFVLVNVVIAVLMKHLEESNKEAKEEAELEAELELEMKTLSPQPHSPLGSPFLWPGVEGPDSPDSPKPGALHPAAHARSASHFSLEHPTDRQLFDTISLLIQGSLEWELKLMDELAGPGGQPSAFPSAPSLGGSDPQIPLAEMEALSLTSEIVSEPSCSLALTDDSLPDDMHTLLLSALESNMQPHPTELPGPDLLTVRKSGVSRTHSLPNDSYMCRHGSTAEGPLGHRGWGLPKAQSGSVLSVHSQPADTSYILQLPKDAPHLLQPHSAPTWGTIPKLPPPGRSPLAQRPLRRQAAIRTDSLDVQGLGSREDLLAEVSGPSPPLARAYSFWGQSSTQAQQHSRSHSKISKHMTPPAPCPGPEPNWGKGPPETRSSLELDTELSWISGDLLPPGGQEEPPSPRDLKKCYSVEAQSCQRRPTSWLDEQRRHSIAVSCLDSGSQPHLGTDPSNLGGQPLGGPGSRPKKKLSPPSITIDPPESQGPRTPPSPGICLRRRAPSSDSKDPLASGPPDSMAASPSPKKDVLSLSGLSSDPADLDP

Row | Structure (SMILES) | inhibition at 10 µM [1, 2] | melting point | inhibition at 10 µM [1, 3] | FDSS (% inhibition)/10uM ([1]; 10 μM, HEK293 cells stably expressing α1G T-type calcium channel and Kir2.1, compounds of the examples)
1 | CN1C(=NC2CCCCCC2)SCC1C(=O)Nc1ccc(F)c(F)c1 (centres unmarked) [KHG24627, (2-cycloheptylimino-3-methyl-1,3-thiazolidine-4-yl)-N-(3,4-difluorophenyl)-carboxamide] | 48.5% | 209.6 °C | – | –
2 | CCCN1C(=NC2CCCCC2)SCC1CC(=O)Nc1cc([N+](=O)[O-])ccc1F.Cl (centres unmarked) [KHG24295, [2-cyclohexylimino-3-(n-propyl)-1,3-thiazolidine-4-yl]-N-(2-fluoro-5-nitrophenyl)-acetamide hydrochloride] | 36.2% | 139.2 °C | – | –
3 | Cc1ccc(NC(=O)CC2CSC(=NC34CC5CC(CC(C5)C3)C4)N2C)c(Cl)c1.Cl (centres unmarked) [KHG24418, [2-(1-adamantyl)imino-3-methyl-1,3-thiazolidine-4-yl]-N-(2-chloro-4-methylphenyl)-acetamide hydrochloride] | 56.9% | 234 to 236 °C | – | –
4 | Cl.O=C(CC1CSC(=NC23CC4CC(CC(C4)C2)C3)N1C1CC1)Nc1ccc(Cl)cc1F (centres unmarked) [KHG24801, [2-(1-adamantylimino)-3-cyclopropyl-1,3-thiazolidine-4-yl]-N-(4-chloro-2-fluorophenyl)-acetamide hydrochloride] | 63.8% | 261 °C | – | –
5 | CC(C)N1C(=NC23CC4CC(CC(C4)C2)C3)SCC1CC(=O)Nc1ccc(Cl)cc1.Cl (centres unmarked) [KHG24823, [2-(1-adamantylimino)-3-isopropyl-1,3-thiazolidine-4-yl]-N-(4-chlorophenyl)-acetamide hydrochloride] | 54.1% | 236 °C | – | –
6 | CN1C(=NC2CCCC2)SCC1CC(=O)NCc1ccc(Cl)cc1.Cl (centres unmarked) [KHG24157, (2-cyclopentylimino-3-methyl-1,3-thiazolidine-4-yl)-N-(4-chlorobenzyl)-acetamide hydrochloride] | 36.7% | 180 to 182 °C | – | –
7 | CC1SC(=NC2CCCCC2)N(C)C1CC(=O)Nc1cc([N+](=O)[O-])ccc1F (centres unmarked) [KHG24484, (2-cyclohexylimino-3,5-dimethyl-1,3-thiazolidine-4-yl)-N-(2-fluoro-5-nitrophenyl)-acetamide] | 32.8% | 249 to 251 °C | – | –
8 | CN1C(=NCC2CCCCC2)SCC1CC(=O)Nc1cc([N+](=O)[O-])ccc1F.Cl (centres unmarked) [KHG24234, (2-cyclohexylmethylimino-3-methyl-1,3-thiazolidine-4-yl)-N-(2-fluoro-5-nitrophenyl)-acetamide hydrochloride] | 45.4% | 225 °C | – | –
9 | CCOC(=O)CCOc1cccc(NC(=O)CC2CSC(=NC3CCCCC3)N2C)c1.Cl (centres unmarked) [KHG24085, (2-cyclohexylimino-3-methyl-1,3-thiazolidine-4-yl)-N-(3-ethoxycarbonylethoxyphenyl)-acetamide hydrochloride] | 52.6% | 241 to 242 °C | – | –
10 | CCN1C(=NC2CCCCC2)SCC1CC(=O)Nc1ccc(F)cc1.Cl (centres unmarked) [KHG24403, (2-cyclohexylimino-3-ethyl-1,3-thiazolidine-4-yl)-N-(4-fluorophenyl)-acetamide hydrochloride] | 49.1% | 196.5 °C | – | –
11 | CN1C(=Nc2ccc(C(F)(F)F)cc2)SCC1CC(=O)Nc1ccc(Cl)cc1F.Cl (centres unmarked) [KHG23068, [2-(4-trifluoromethylphenylimino)-3-methyl-1,3-thiazolidine-4-yl]-N-(4-chloro-2-fluorophenyl)-acetamide hydrochloride] | – | 222 to 223 °C | 5.76% | –
12 | CN1C(=NC2CCCC2)SCC1CC(=O)Nc1cc(Cl)ccc1F.Cl (centres unmarked) [KHG24103, (2-cyclopentylimino-3-methyl-1,3-thiazolidine-4-yl)-N-(5-chloro-2-fluorophenyl)-acetamide hydrochloride] | 45% | 214 to 216 °C | – | –
13 | CCCCc1ccc(NC(=O)CC2CSC(=NC3CCCCC3)N2CC)cc1.Cl (centres unmarked) [KHG24277, [2-cyclohexylimino-3-ethyl-1,3-thiazolidine-4-yl]-N-(4-n-butylphenyl)-acetamide hydrochloride] | 61.1% | 158.4 °C | – | –
14 | CCCN1C(=NC2CCCCC2)SCC1CC(=O)Nc1ccc(Oc2ccccc2)cc1.Cl (centres unmarked) [KHG24290, [2-cyclohexylimino-3-(n-propyl)-1,3-thiazolidine-4-yl]-N-(4-phenoxyphenyl)-acetamide hydrochloride] | 62.2% | 230.3 °C | – | –
15 | CCc1ccc(NC(=O)CC2CSC(=NC34CC5CC(CC(C5)C3)C4)N2C2CC2)cc1.Cl (centres unmarked) [KHG24799, [2-(1-adamantylimino)-3-cyclopropyl-1,3-thiazolidine-4-yl]-N-(4-ethylphenyl)-acetamide hydrochloride] | 63.4% | 266 °C | – | –
16 | CC1SC(=NC2CCCCCC2)N(C)C1CC(=O)Nc1ccccc1.Cl (centres unmarked) [KHG24638, (2-cycloheptylimino-3,5-dimethyl-1,3-thiazolidine-4-yl)-N-phenyl-acetamide hydrochloride] | 40.8% | 236 to 238 °C | – | –

Row | Structure (SMILES) | inhibition at 10 µM [1, 2] | melting point | inhibition at 10 µM [1, 3] | FDSS (% inhibition)/10uM ([1]; 10 μM, HEK293 cells stably expressing α1G T-type calcium channel and Kir2.1, compounds of the examples)
17 | CCCCN1C(=NC2CCCCC2)SCC1CC(=O)Nc1ccc(C)cc1.Cl (centres unmarked) [KHG24285, [2-cyclohexylimino-3-(n-butyl)-1,3-thiazolidine-4-yl]-N-(4-methylphenyl)-acetamide hydrochloride] | 46% | 183.4 °C | – | –
18 | CCCCc1ccc(N=C2SCC(CC(=O)Nc3ccc(Cl)cc3F)N2C)cc1.Cl (centres unmarked) [KHG23066, [2-(4-n-butylphenylimino)-3-methyl-1,3-thiazolidine-4-yl]-N-(4-chloro-2-fluorophenyl)-acetamide hydrochloride] | – | 223 to 224 °C | 1.3% | –
19 | CC(C)c1ccc(NC(=O)CC2CSC(=Nc3cccc(Br)c3)N2C)cc1.Cl (centres unmarked) [KHG21949, [2-(3-bromophenylimino)-3-methyl-1,3-thiazolidine-4-yl]-N-(4-isopropylphenyl)-acetamide hydrochloride] | – | 198 to 201 °C | 5.41% | –
20 | CCCCN1C(=NC2CCCCC2)SCC1CC(=O)Nc1ccc(F)cc1.Cl (centres unmarked) [KHG24284, [2-cyclohexylimino-3-(n-butyl)-1,3-thiazolidine-4-yl]-N-(4-fluorophenyl)-acetamide hydrochloride] | 44.6% | 203.5 °C | – | –
21 | CCc1ccc(N=C2SCC(CC(=O)Nc3ccc(Cl)cc3F)N2C)cc1.Cl (centres unmarked) [KHG23072, [2-(4-ethylphenylimino)-3-methyl-1,3-thiazolidine-4-yl]-N-(4-chloro-2-fluorophenyl)-acetamide hydrochloride] | – | 242 °C | 29.4% | –
22 | CN1C(=NC2C3CC4CC(C3)CC2C4)SCC1CC(=O)Nc1ccc(F)cc1.Cl (centres unmarked) [KHG24842, [2-(2-adamantylimino)-3-methyl-1,3-thiazolidine-4-yl]-N-(4-fluorophenyl)-acetamide hydrochloride] | 59.8% | 154 °C | – | –
23 | COc1cccc(N=C2SCC(CC(=O)Nc3ccc(Cl)cc3)N2C)c1.Cl (centres unmarked) [KHG21649, [2-(3-methoxyphenylimino)-3-methyl-1,3-thiazolidine-4-yl]-N-(4-chlorophenyl)-acetamide hydrochloride] | – | 228 to 231 °C | 27.8% | –
24 | CCCCN1C(=NC23CC4CC(CC(C4)C2)C3)SCC1CC(=O)Nc1cc(Cl)ccc1F.Cl (centres unmarked) [KHG24785, [2-(1-adamantylimino)-3-(n-butyl)-1,3-thiazolidine-4-yl]-N-(5-chloro-2-fluorophenyl)-acetamide hydrochloride] | 47.1% | 156 °C | – | –
25 | CN1C(=NC2CCCCCC2)SCC1C(=O)NCc1cccc(F)c1 (centres unmarked) [KHG24667, (2-cycloheptylimino-3-methyl-1,3-thiazolidine-4-yl)-N-(3-fluorobenzyl)-carboxamide] | – | 140.1 °C | – | 45.99%
26 | CC1SC(=NC2CCCCC2)N(C)C1CC(=O)Nc1ccc(Br)cc1 (centres unmarked) [KHG24482, (2-cyclohexylimino-3,5-dimethyl-1,3-thiazolidine-4-yl)-N-(4-bromophenyl)-acetamide] | 52.4% | 260 to 262 °C | – | –
27 | CC1SC(=NC2CCCCC2)N(C)C1CC(=O)Nc1cc(Cl)cc(Cl)c1 (centres unmarked) [KHG24483, (2-cyclohexylimino-3,5-dimethyl-1,3-thiazolidine-4-yl)-N-(3,5-dichlorophenyl)-acetamide] | 52.5% | 264 to 265 °C | – | –
28 | CC(C)N1C(=NC23CC4CC(CC(C4)C2)C3)SCC1CC(=O)Nc1cc([N+](=O)[O-])ccc1F.Cl (centres unmarked) [KHG24840, [2-(1-adamantylimino)-3-isopropyl-1,3-thiazolidine-4-yl]-N-(2-fluoro-5-nitrophenyl)-acetamide hydrochloride] | 49.4% | 131 °C | – | –
29 | CN1C(=Nc2ccc(Cl)cc2)SCC1CC(=O)Nc1ccc(Cl)cc1F.Cl (centres unmarked) [KHG23064, [2-(4-chlorophenylimino)-3-methyl-1,3-thiazolidine-4-yl]-N-(4-chloro-2-fluorophenyl)-acetamide hydrochloride] | – | 239 to 240 °C | 7.37% | –
30 | CCCN1C(=NC23CC4CC(CC(C4)C2)C3)SCC1CC(=O)Nc1ccc(C)cc1Cl.Cl (centres unmarked) [KHG24818, [2-(1-adamantylimino)-3-n-propyl-1,3-thiazolidine-4-yl]-N-(2-chloro-4-methylphenyl)-acetamide hydrochloride] | 68.2% | 201 °C | – | –
31 | CN1C(=NC2CCCC2)SCC1CC(=O)Nc1cc([N+](=O)[O-])ccc1F.Cl (centres unmarked) [KHG24104, (2-cyclopentylimino-3-methyl-1,3-thiazolidine-4-yl)-N-(2-fluoro-5-nitrophenyl)-acetamide hydrochloride] | 34.3% | 234.5 to 236 °C | – | –
